In ChEMBL document CHEMBL5649169 (ChemMedChem, 2018):

Columns and labels:
[1] = target: Alanine--tRNA ligase, cytoplasmic (Homo sapiens) (UniProt P49588)
[2] = target: Protein cholesin (Homo sapiens) (UniProt Q9BRJ6)
[3] = target: Carboxymethylenebutenolidase homolog (Homo sapiens) (UniProt Q96DG6)
[4] = target: Dipeptidyl peptidase 1 (Homo sapiens) (UniProt P53634)
Cullin-3 (Homo sapiens) = Cullin-3 (Homo sapiens) (UniProt Q13618)
[5] = target: Dihydrolipoyllysine-residue acetyltransferase component of pyruvate dehydrogenase complex, mitochondrial (Homo sapiens) (UniProt P10515)
[6] = target: Receptor-type tyrosine-protein kinase FLT3 (Homo sapiens) (UniProt P36888)
[7] = target: Glia maturation factor gamma (Homo sapiens) (UniProt O60234)
Sequence of Glia maturation factor gamma (Homo sapiens) (O60234 whole entry): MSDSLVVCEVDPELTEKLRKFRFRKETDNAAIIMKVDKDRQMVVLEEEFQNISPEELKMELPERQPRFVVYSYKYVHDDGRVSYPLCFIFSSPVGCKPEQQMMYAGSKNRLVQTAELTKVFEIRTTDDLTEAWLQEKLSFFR

[8] = target: Host cell factor 1 (Homo sapiens) (UniProt P51610)
Sequence of Host cell factor 1 (Homo sapiens) (P51610 2-1019 limits assumed): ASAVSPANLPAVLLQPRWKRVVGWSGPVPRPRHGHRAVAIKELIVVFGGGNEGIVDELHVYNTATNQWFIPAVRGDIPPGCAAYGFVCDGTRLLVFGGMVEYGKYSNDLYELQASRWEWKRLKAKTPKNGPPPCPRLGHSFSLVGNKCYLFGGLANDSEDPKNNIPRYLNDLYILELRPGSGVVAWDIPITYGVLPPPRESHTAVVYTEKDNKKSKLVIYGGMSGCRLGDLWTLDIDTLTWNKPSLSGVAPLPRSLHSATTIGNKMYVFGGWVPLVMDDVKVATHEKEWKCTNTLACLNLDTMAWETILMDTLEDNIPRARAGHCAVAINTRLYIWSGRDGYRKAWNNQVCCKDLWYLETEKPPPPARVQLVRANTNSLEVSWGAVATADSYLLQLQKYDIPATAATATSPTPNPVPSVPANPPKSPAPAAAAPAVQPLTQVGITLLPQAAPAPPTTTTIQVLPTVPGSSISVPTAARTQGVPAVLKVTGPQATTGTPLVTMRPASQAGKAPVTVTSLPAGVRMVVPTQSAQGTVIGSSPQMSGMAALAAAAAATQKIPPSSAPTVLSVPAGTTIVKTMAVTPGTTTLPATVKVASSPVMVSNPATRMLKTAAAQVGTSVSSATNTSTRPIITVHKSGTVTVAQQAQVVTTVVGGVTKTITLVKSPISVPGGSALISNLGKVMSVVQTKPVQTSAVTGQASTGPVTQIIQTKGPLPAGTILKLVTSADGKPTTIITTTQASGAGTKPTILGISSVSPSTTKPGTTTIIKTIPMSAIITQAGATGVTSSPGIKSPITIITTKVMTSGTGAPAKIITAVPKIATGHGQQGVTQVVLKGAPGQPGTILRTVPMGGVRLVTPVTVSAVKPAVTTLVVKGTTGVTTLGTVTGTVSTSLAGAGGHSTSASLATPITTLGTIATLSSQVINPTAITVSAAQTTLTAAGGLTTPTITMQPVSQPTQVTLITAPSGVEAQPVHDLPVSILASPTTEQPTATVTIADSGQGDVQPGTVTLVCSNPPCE
Sequence of Host cell factor 1 (Homo sapiens) (P51610 1020-2035 limits assumed): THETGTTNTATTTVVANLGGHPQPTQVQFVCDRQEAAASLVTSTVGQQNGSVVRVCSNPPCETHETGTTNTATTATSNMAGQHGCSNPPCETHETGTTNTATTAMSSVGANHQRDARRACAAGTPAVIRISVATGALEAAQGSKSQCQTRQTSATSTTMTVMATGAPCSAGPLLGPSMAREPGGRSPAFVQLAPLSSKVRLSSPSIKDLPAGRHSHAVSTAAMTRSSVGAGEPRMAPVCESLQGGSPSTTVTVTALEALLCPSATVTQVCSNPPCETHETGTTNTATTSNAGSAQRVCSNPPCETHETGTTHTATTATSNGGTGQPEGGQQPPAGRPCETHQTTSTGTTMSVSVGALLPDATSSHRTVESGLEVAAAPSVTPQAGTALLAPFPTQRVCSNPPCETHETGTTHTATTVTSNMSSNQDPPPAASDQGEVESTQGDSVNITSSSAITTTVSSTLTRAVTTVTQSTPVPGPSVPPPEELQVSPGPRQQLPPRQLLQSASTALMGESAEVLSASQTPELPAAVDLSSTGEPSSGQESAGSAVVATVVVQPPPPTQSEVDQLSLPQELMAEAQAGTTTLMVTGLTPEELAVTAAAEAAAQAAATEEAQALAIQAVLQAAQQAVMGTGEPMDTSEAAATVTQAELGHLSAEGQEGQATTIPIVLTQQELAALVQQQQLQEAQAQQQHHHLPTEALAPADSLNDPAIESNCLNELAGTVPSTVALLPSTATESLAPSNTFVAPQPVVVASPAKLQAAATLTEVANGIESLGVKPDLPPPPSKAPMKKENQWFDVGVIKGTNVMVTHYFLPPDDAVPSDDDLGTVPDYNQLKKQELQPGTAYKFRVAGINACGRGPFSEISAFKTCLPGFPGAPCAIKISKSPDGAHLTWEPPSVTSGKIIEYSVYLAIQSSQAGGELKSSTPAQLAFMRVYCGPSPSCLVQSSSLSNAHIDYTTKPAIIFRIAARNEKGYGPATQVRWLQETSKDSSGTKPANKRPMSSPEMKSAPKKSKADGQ

[9] = target: Histone H1.5 (Homo sapiens) (UniProt P16401)
[10] = target: Histone H4 (Homo sapiens) (UniProt P62805)
Homo sapiens [11] = species: Homo sapiens
[12] = target: Heterogeneous nuclear ribonucleoprotein K (Homo sapiens) (UniProt P61978)
[13] = target: Leucine--tRNA ligase, cytoplasmic (Homo sapiens) (UniProt Q9P2J5)
[14] = target: Lon protease homolog, mitochondrial (Homo sapiens) (UniProt P36776)
[15] = target: Leucine-rich repeat-containing protein 59 (Homo sapiens) (UniProt Q96AG4)
Sequence of Leucine-rich repeat-containing protein 59 (Homo sapiens) (Q96AG4 whole entry): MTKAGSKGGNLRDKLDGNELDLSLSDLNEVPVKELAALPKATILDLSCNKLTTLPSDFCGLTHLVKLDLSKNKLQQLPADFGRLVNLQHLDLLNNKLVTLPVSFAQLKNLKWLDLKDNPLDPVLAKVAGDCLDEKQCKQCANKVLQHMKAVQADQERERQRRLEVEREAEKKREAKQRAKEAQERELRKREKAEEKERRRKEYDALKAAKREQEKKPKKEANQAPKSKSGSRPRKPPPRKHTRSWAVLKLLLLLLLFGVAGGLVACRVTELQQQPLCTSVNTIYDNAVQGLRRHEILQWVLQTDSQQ

Midasin (Homo sapiens) = Midasin (Homo sapiens) (UniProt Q9NU22)
[16] = target: Asparagine--tRNA ligase, cytoplasmic (Homo sapiens) (UniProt O43776)
Sequence of Asparagine--tRNA ligase, cytoplasmic (Homo sapiens) (O43776 whole entry): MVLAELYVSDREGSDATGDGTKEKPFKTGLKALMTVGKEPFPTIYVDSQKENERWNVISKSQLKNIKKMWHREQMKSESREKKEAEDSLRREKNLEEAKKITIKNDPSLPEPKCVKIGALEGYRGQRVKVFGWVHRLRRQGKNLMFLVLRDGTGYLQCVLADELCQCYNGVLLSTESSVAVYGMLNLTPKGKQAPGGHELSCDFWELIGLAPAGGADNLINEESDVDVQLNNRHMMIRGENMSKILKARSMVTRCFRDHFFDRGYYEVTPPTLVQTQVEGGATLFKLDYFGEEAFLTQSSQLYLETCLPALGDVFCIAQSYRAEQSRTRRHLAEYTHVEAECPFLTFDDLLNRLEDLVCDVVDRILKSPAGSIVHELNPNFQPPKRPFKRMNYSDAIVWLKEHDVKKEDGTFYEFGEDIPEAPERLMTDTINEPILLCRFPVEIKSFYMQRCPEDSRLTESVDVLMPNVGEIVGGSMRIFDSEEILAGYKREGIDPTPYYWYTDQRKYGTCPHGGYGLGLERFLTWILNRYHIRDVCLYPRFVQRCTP

[17] = target: NADH dehydrogenase [ubiquinone] iron-sulfur protein 3, mitochondrial (Homo sapiens) (UniProt O75489)
[18] = target: Polyadenylate-binding protein 1 (Homo sapiens) (UniProt P11940)
[19] = target: Serine/threonine-protein kinase PAK 4 (Homo sapiens) (UniProt O96013)
Homo sapiens [20] = species: Homo sapiens; remark: listed apart in the source
[21] = target: 5'-AMP-activated protein kinase subunit gamma-2 (Homo sapiens) (UniProt Q9UGJ0)
[22] = target: Proteasome subunit alpha type-6 (Homo sapiens) (UniProt P60900)
[23] = target: 26S proteasome non-ATPase regulatory subunit 1 (Homo sapiens) (UniProt Q99460)
[24] = target: Ras-related protein Rab-14 (Homo sapiens) (UniProt P61106)
[25] = target: Histone-binding protein RBBP4 (Homo sapiens) (UniProt Q09028)
Sequence of Histone-binding protein RBBP4 (Homo sapiens) (Q09028 whole entry): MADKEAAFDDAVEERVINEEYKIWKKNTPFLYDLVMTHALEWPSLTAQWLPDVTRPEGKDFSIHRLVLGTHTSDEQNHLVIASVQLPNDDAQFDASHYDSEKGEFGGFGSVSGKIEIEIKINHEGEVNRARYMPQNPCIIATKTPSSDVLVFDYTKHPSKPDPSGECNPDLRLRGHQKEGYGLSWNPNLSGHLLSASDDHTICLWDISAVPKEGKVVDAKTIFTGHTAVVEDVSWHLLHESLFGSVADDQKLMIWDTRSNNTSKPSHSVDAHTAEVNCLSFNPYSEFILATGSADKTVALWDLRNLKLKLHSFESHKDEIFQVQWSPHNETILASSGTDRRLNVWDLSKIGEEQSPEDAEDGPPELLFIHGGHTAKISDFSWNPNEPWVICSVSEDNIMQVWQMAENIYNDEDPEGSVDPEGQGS

[26] = target: Protein RER1 (Homo sapiens) (UniProt O15258)
[27] = target: Rho-associated protein kinase 2 (Homo sapiens) (UniProt O75116)
[28] = target: Large ribosomal subunit protein uL29 (Homo sapiens) (UniProt P42766)
[29] = target: Protein transport protein Sec23A (Homo sapiens) (UniProt Q15436)
[30] = target: Protein transport protein Sec61 subunit beta (Homo sapiens) (UniProt P60468)
[31] = target: Translocation protein SEC63 homolog (Homo sapiens) (UniProt Q9UGP8)
[32] = target: Splicing factor, proline- and glutamine-rich (Homo sapiens) (UniProt P23246)
[33] = target: Monocarboxylate transporter 4 (Homo sapiens) (UniProt O15427)
Sequence of Monocarboxylate transporter 4 (Homo sapiens) (O15427 whole entry): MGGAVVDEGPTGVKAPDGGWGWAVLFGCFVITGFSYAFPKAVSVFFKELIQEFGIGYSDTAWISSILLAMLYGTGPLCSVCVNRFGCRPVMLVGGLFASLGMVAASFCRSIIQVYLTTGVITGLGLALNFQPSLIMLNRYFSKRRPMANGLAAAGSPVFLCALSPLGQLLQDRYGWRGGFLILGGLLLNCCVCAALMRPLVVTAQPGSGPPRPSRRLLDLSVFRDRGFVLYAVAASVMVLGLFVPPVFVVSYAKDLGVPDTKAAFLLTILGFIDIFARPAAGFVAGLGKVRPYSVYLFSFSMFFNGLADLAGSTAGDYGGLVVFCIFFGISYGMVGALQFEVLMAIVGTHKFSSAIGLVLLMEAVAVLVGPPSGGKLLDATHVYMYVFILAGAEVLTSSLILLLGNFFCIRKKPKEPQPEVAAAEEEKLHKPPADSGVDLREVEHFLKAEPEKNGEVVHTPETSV

[34] = target: High affinity cationic amino acid transporter 1 (Homo sapiens) (UniProt P30825)
Homo sapiens [35] = species: Homo sapiens; remark: listed apart in the source
[36] = target: Sterol O-acyltransferase 1 (Homo sapiens) (UniProt P35610)
Sequence of Sterol O-acyltransferase 1 (Homo sapiens) (P35610 whole entry): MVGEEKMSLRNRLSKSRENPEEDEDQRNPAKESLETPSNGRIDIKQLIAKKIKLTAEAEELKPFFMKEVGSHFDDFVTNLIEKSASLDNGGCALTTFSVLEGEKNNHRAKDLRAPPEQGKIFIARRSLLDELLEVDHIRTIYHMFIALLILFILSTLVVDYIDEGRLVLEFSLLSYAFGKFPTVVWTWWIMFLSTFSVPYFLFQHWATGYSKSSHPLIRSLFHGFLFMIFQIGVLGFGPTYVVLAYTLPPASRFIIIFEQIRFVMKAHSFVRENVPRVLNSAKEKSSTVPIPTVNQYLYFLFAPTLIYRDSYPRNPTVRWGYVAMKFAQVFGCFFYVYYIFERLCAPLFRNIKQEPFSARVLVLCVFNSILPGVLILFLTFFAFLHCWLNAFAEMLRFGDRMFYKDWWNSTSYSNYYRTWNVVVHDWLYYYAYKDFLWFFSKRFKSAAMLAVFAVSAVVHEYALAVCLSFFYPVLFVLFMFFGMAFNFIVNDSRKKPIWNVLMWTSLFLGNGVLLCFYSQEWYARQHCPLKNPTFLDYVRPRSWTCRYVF

[37] = target: Spectrin alpha chain, non-erythrocytic 1 (Homo sapiens) (UniProt Q13813)
[38] = target: Stress-induced-phosphoprotein 1 (Homo sapiens) (UniProt P31948)
[39] = target: Serine/threonine-protein kinase 3 (Homo sapiens) (UniProt Q13188)
[40] = target: Dual specificity testis-specific protein kinase 2 (Homo sapiens) (UniProt Q96S53)
[41] = target: Triosephosphate isomerase (Homo sapiens) (UniProt P60174)
Sequence of Triosephosphate isomerase (Homo sapiens) (P60174 whole entry): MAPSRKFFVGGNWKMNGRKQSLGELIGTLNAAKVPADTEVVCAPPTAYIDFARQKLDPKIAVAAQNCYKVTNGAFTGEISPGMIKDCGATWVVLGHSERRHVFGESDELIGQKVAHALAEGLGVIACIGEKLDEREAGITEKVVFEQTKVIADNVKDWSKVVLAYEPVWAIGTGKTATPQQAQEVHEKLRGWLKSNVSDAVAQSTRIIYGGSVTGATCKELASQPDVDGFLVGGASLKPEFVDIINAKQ

[42] = target: Serine/threonine-protein kinase ULK1 (Homo sapiens) (UniProt O75385)
[43] = target: Vacuolar protein sorting-associated protein 35 (Homo sapiens) (UniProt Q96QK1)
[44] = target: WD repeat-containing protein 1 (Homo sapiens) (UniProt O75083)
[45] = target: 5'-3' exoribonuclease 2 (Homo sapiens) (UniProt Q9H0D6)
[46] = target: 14-3-3 protein eta (Homo sapiens) (UniProt Q04917)
Also: assay method not described here.

Sequence of Carboxymethylenebutenolidase homolog (Homo sapiens) (Q96DG6 whole entry): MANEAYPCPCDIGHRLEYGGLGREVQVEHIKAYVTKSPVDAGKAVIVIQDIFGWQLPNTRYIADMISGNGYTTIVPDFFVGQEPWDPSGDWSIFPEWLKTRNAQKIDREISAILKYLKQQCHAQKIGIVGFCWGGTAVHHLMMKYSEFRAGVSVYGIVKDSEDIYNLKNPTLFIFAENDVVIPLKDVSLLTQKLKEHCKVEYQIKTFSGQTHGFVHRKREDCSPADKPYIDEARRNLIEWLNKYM

Cc1ccc(C(=O)Nc2cccc(C(F)(F)F)c2)cc1Nc1nc(-c2cccnc2)nc2c1cnn2C
ED50 [1]: 0.00373 µM | ED50 [2]: 0.0151 µM | ED50 [3]: 0.671 µM | ED50 [4]: 0.0113 µM | ED50 (Cullin-3 (Homo sapiens)): 0.0191 µM | ED50 [5]: 2.58 µM | ED50 [6]: 0.00514 µM | ED50 [7]: 70.9 µM | ED50 [8]: 1.41 µM | ED50 [9]: 4 µM | ED50 [10]: 4.09 µM | ED50 (Homo sapiens [11]): 3.11 µM | ED50 [12]: 0.0564 µM | ED50 [13]: 4.63 µM | ED50 [14]: 0.575 µM | ED50 [15]: 0.163 µM | ED50 (Midasin (Homo sapiens)): 55500 µM | ED50 [16]: 0.0284 µM | ED50 [17]: 4.77 µM | ED50 [18]: 3.36 µM | ED50 [19]: 9.68 µM | ED50 (Homo sapiens [20]): 0.0833 µM | ED50 [21]: 57.4 µM | ED50 [22]: 3.6 µM | ED50 [23]: 0.0138 µM | ED50 [24]: 2.88 µM | ED50 [25]: 11 µM | ED50 [26]: 78.2 µM | ED50 [27]: 0.0201 µM | ED50 [28]: 64.9 µM | ED50 [29]: 4.18 µM | ED50 [30]: 11.5 µM | ED50 [31]: 95700 µM | ED50 [32]: 6.39 µM | ED50 [33]: 4.22 µM | ED50 [34]: 4.06 µM | ED50 (Homo sapiens [35]): 1.18 µM | ED50 [36]: 224 µM | ED50 [37]: 0.08 µM | ED50 [38]: 3.83 µM | ED50 [39]: 14.2 µM | ED50 [40]: 0.00136 µM | ED50 [41]: 0.183 µM | ED50 [42]: 3.6 µM | ED50 [43]: 15.7 µM | ED50 [44]: 2.69 µM | ED50 [45]: 0.547 µM | ED50 [46]: 0.0217 µM

Cc1ccc(C(=O)Nc2cccc(C(F)(F)F)c2)cc1Nc1nc(-c2cccnc2)nc2nn(C)cc12
ED50 [1]: 36.5 µM | ED50 [2]: 39.4 µM | ED50 [3]: 0.0561 µM | ED50 [4]: 1.88 µM | ED50 (Cullin-3 (Homo sapiens)): 1.09 µM | ED50 [5]: 0.0551 µM | ED50 [6]: 16.7 µM | ED50 [7]: 0.00291 µM | ED50 [8]: 0.0523 µM | ED50 [9]: 1000 µM | ED50 [10]: 0.00989 µM | ED50 (Homo sapiens [11]): 0.00782 µM | ED50 [12]: 0.184 µM | ED50 [13]: 0.265 µM | ED50 [14]: 0.0644 µM | ED50 [15]: 0.0082 µM | ED50 (Midasin (Homo sapiens)): 0.048 µM | ED50 [16]: 5.57 µM | ED50 [17]: 0.002 µM | ED50 [18]: 10.7 µM | ED50 [19]: 25.1 µM | ED50 (Homo sapiens [20]): 21400 µM | ED50 [21]: 0.0408 µM | ED50 [22]: 0.0409 µM | ED50 [23]: 4.32 µM | ED50 [24]: 4.44 µM | ED50 [25]: 0.458 µM | ED50 [26]: 3.97 µM | ED50 [27]: 0.432 µM | ED50 [28]: 0.00771 µM | ED50 [29]: 4.91 µM | ED50 [30]: 3 µM | ED50 [31]: 0.0344 µM | ED50 [32]: 15 µM | ED50 [33]: 2.74 µM | ED50 [34]: 1.68 µM | ED50 (Homo sapiens [35]): 0.131 µM | ED50 [36]: 7.06 µM | ED50 [37]: 0.12 µM | ED50 [38]: 0.0577 µM | ED50 [39]: 9.32 µM | ED50 [40]: 0.00616 µM | ED50 [41]: 0.0625 µM | ED50 [42]: 0.55 µM | ED50 [43]: 0.0256 µM | ED50 [44]: 0.0817 µM | ED50 [45]: 0.0114 µM | ED50 [46]: 0.103 µM
